# Laboratory results: patent US7655392B2, “Quenching methods for red blood cell inactivation process” (priority 2004, dated 2010)
# Like-named read-outs stand apart in the source and are kept apart here.
# Test system: Serratia marcescens
# Format: cell-based
# [1] = 0.2 mM PIC-1+2 mM glutathione, 0.9 eq base, formulated together
# [2] = 0.2 mM PIC-1+20 mM glutathione, 0 eq base, formulated together
# [3] = 0.2 mM PIC-1+20 mM glutathione, 0.9 eq base, formulated together (PIC-1 precipitated)
# [4] = 0.2 mM PIC-1+20 mM glutathione, 1.5 eq base, formulated together (PIC-1 precipitated)
# [5] = 0.2 mM PIC-1+20 mM glutathione, 2 eq base, formulated together (PIC-1 precipitated)
# [6] = 0.2 mM PIC-1 first, 20 mM glutathione+2 eq base shortly after (sequential)
# [7] = Table 2B: 0.2 mM PIC-1, then 20 mM glutathione+2 eq base after 1 min
# [8] = Table 2B: 0.2 mM PIC-1, then 20 mM glutathione+2 eq base after 5 min
# [9] = Table 2B: 0.2 mM PIC-1, then 20 mM glutathione+2 eq base after 10 min
# [10] = Table 2B: 0.2 mM PIC-1, then 20 mM glutathione+2 eq base after 20 min
# [11] = Table 2B: 0.2 mM PIC-1 and 2 mM glutathione, 0 eq base, simultaneous
# [12] = Table 2B: 0.2 mM PIC-1 and 20 mM glutathione, 0 eq base, simultaneous
# [13] = Table 2B: 20 mM glutathione+2 eq base, then 0.2 mM PIC-1 after 1 min
# [14] = Table 2B: 20 mM glutathione+2 eq base, then 0.2 mM PIC-1 after 10 min
# [15] = Table 5A: 0.2 mM PIC-1, then 20 mM GSH+2 eq base after 1 min
# [16] = Table 5A: 10 mM Cys+10 mM GSH, 2 eq base each, then 0.2 mM PIC-1 after 10 min
# [17] = Table 5A: 15 mM Cys+5 mM GSH, 2 eq base each, then 0.2 mM PIC-1 after 10 min
# [18] = Table 5A: 20 mM Cys+2 eq base, then 0.2 mM PIC-1 after 10 min
# [19] = Table 5A: 20 mM GSH+2 eq base, then 0.2 mM PIC-1 after 10 min
# [20] = Table 5B: 0.2 mM PIC-1+2 mM GSH, 0 eq base, no delay
# [21] = Table 5B: 5 mM Cys+2 eq base, then 0.2 mM PIC-1 after 5 min
# [22] = Table 5B: 5 mM Cys+2 eq base, then 0.2 mM PIC-1 after 10 min
# [23] = Table 5B: 5 mM Cys+2 eq base, then 0.2 mM PIC-1 after 20 min
# [24] = Table 5B: 10 mM Cys+2 eq base, then 0.2 mM PIC-1 after 10 min
compound,measurement,setting,value
O=C(CCNc1c2ccccc2nc2ccccc12)OCCN(CCCl)CCCl [PIC-1],Log S. marcescens reduction,[1],4.27 Log
same,Log S. marcescens titer,[1],2.8 Log
same,Log S. marcescens reduction,[2],2.40 Log
same,Log S. marcescens titer,[2],4.6 Log
same,Log S. marcescens reduction,[3],2.26 Log
same,Log S. marcescens titer,[3],4.8 Log
same,Log S. marcescens reduction,[4],1.66 Log
same,Log S. marcescens titer,[4],5.4 Log
same,Log S. marcescens reduction,[5],0.76 Log
same,Log S. marcescens titer,[5],6.3 Log
same,Log S. marcescens reduction,[6],3.02 Log
same,Log S. marcescens titer,[6],4.0 Log
same,Log S. marcescens reduction,[7],3.36 Log
same,Log S. marcescens titer,[7],3.40 Log
same,Log S. marcescens reduction,[8],3.89 Log
same,Log S. marcescens titer,[8],2.87 Log
same,Log S. marcescens reduction,[9],4.96 Log
same,Log S. marcescens titer,[9],1.80 Log
same,Log S. marcescens reduction,[10],6.76 Log
same,Log S. marcescens titer,[10],0.00 Log
same,Log S. marcescens reduction,[11],5.25 Log
same,Log S. marcescens titer,[11],1.51 Log
same,Log S. marcescens reduction,[12],0.71 Log
same,Log S. marcescens titer,[12],6.05 Log
same,Log S. marcescens reduction,[13],3.66 Log
same,Log S. marcescens titer,[13],3.10 Log
same,Log S. marcescens reduction,[14],3.68 Log
same,Log S. marcescens titer,[14],3.08 Log
same,Log S. marcescens reduction,[15],2.7 Log
same,Log S. marcescens titer,[15],4.8 Log
same,Log S. marcescens reduction,[16],3.0 Log
same,Log S. marcescens titer,[16],4.5 Log
same,Log S. marcescens reduction,[17],3.7 Log
same,Log S. marcescens titer,[17],3.8 Log
same,Log S. marcescens reduction,[18],3.1 Log
same,Log S. marcescens titer,[18],4.4 Log
same,Log S. marcescens reduction,[19],3.4 Log
same,Log S. marcescens titer,[19],4.1 Log
same,Log S. marcescens reduction,[20],4.1 Log
same,Log S. marcescens titer,[20],3.5 Log
same,Log S. marcescens reduction,[21],3.2 Log
same,Log S. marcescens titer,[21],4.4 Log
same,Log S. marcescens reduction,[22],3.2 Log
same,Log S. marcescens titer,[22],4.4 Log
same,Log S. marcescens reduction,[23],2.9 Log
same,Log S. marcescens titer,[23],4.7 Log
same,Log S. marcescens reduction,[24],2.7 Log
same,Log S. marcescens titer,[24],4.9 Log
